In general, IC50 refers to the midpoint of a concentration-inhibition curve.

For data set [1], the target named is recombinant PI3 kinase α (Homo sapiens (Human), UniProt P42336). The data set can be described thus: Enzyme Inhibition Assay (HTRF PI3K enzyme assay, TR-FRET). The following applies: activity range; read-out: PI3 Kinase Inhibition IC50 values at stated Isozyme α. It is filed as biochemical. An outline of the steps:
(§1)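 Recombinant PI3Kα, δ or γ incubated with PIP2 substrate and compound for 2 hr at RT. Stop solution with biotin-PIP3 and GST-GRP1 PH domain/Eu-anti-GST/SA-APC detection mix added, then 15-18 hr at RT. PIP3 formed reduces the TR-FRET signal.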
Background: Time-resolved FRET reads energy transfer from a long-lived donor to a nearby acceptor.

For data set [2], the target named is recombinant PI3 kinase γ (Homo sapiens (Human), UniProt P48736). The description is as above. The following applies: activity range; read-out: PI3 Kinase Inhibition IC50 values at stated Isozyme γ. In kind it is biochemical. An outline of the steps:
as §1

The target of data set [3] is recombinant PI3 kinase δ (Homo sapiens (Human), UniProt O00329). Described as above. It is filed as biochemical. To be noted: activity range; read-out: PI3 Kinase Inhibition IC50 values at stated Isozyme δ. An outline of the steps:
as §1

Data set [4] deals with H2O2 induced pAkt in D-U937 cells. The data set can be described thus: PI3Kδ Cell Based Assay (H2O2 induced pAkt). To be noted: Homo sapiens, dU937; activity range; D-U937 cells; read-out: Cellular Activity IC50 values (H2O2 induced pAkt D-U937 Cells). An outline of the steps:
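U937 cells differentiated to macrophage-type cells with PMA (100 ng/mL, 48 to 72 hr), then stimulated with H2O2. pAkt and total Akt detected by antibody-based immunoassay. Ratio of pAkt to total Akt signal used; IC50 from concentration-response curves of serially diluted compounds.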

Data set [5] relates to PMA-differentiated U937 cells. The data set can be described thus: MTT Assay (cell viability). It is filed as cell-based, Human. To be noted: percentage loss of cell viability; for Cell Viability MTT Assay in D-U937 cells at 4 hr: 4 hr in 5% FCS; for Cell Viability MTT Assay in D-U937 cells at 24 hr: 24 hr in 10% FCS. An outline of the steps:
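Differentiated U937 cells treated with compound for 4 hr (5% FCS) or 24 hr (10% FCS), then given MTT for 1 hr; formazan dissolved in DMSO and absorbance read at 550 nm. Viability loss expressed as % versus 0.5% DMSO vehicle.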

SMILES strings stand for the structures.

recombinant PI3 kinase α, sequence (P42336 whole entry, the tested form may be a part): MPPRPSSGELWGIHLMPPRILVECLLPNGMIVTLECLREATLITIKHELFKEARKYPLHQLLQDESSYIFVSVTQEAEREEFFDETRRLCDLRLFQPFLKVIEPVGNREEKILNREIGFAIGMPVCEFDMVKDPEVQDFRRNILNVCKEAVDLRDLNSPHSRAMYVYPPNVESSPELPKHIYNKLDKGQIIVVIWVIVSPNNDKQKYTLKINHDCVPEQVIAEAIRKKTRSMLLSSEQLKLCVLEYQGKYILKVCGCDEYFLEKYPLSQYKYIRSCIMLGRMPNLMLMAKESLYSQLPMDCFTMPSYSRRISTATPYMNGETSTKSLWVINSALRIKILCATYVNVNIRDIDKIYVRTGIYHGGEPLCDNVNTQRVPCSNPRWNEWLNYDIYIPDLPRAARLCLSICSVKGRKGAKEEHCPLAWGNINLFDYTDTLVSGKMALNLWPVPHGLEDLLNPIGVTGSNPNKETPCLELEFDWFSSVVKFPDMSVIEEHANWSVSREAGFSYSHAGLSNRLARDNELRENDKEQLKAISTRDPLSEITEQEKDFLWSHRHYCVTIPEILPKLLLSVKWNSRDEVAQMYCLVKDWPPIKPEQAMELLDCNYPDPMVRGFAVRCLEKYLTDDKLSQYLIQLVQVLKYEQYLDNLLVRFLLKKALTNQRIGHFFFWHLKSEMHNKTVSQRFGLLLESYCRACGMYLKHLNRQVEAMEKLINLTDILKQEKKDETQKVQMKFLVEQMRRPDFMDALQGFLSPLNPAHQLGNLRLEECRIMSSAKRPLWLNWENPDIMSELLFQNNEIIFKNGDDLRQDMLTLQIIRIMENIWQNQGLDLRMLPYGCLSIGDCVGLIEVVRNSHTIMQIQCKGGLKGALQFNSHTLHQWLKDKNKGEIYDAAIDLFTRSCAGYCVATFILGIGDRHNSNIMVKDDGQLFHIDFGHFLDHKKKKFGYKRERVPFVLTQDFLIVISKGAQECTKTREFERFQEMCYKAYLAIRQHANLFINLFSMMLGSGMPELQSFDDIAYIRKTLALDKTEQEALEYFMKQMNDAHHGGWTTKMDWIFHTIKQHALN
recombinant PI3 kinase α, sequence (P27986 whole entry partner, the tested form may be a part): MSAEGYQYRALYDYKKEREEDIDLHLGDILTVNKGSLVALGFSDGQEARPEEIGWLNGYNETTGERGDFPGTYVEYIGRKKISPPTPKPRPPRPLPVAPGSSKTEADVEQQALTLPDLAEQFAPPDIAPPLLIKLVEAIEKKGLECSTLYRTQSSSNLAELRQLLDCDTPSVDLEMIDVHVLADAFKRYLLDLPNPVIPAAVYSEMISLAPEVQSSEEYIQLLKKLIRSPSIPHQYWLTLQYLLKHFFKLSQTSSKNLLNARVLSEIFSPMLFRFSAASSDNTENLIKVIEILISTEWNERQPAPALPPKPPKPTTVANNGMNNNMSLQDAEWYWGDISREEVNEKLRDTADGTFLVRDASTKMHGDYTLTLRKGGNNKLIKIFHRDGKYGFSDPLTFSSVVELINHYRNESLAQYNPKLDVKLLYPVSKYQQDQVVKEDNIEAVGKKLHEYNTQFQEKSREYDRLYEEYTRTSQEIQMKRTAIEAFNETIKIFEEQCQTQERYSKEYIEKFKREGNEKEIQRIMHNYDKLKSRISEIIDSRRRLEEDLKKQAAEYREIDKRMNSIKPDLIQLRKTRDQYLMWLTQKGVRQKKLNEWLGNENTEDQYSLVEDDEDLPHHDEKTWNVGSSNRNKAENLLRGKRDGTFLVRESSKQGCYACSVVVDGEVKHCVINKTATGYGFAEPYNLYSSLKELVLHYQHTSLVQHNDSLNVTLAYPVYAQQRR
recombinant PI3 kinase γ, sequence (P48736 whole entry): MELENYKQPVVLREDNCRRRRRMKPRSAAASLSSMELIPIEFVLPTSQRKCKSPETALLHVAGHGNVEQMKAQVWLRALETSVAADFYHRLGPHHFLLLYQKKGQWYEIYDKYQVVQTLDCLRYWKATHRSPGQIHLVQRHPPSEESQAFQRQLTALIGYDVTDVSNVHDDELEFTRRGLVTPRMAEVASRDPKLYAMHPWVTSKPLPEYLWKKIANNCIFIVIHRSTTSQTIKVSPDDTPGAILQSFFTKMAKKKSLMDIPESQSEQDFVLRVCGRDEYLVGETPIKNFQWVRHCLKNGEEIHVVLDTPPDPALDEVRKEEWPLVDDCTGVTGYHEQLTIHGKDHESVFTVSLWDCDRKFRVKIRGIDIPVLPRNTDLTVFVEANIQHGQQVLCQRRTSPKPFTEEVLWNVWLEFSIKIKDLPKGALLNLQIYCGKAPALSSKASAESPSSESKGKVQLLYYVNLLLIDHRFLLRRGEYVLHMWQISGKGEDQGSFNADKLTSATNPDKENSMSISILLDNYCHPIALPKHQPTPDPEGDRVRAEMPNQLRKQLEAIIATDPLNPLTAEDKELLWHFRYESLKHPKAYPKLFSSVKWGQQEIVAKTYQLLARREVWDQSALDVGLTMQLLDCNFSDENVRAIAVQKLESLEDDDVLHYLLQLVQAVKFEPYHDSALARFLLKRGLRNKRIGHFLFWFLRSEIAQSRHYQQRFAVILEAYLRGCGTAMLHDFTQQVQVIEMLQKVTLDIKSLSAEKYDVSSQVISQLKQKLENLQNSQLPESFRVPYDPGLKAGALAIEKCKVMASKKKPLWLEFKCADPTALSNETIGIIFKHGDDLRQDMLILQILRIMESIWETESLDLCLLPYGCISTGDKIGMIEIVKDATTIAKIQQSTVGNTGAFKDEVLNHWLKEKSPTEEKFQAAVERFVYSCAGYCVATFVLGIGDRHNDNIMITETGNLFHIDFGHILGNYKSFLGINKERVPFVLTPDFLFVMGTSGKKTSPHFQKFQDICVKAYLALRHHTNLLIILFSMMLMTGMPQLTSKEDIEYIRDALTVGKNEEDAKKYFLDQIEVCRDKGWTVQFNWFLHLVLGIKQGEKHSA
recombinant PI3 kinase δ, sequence (O00329 whole entry): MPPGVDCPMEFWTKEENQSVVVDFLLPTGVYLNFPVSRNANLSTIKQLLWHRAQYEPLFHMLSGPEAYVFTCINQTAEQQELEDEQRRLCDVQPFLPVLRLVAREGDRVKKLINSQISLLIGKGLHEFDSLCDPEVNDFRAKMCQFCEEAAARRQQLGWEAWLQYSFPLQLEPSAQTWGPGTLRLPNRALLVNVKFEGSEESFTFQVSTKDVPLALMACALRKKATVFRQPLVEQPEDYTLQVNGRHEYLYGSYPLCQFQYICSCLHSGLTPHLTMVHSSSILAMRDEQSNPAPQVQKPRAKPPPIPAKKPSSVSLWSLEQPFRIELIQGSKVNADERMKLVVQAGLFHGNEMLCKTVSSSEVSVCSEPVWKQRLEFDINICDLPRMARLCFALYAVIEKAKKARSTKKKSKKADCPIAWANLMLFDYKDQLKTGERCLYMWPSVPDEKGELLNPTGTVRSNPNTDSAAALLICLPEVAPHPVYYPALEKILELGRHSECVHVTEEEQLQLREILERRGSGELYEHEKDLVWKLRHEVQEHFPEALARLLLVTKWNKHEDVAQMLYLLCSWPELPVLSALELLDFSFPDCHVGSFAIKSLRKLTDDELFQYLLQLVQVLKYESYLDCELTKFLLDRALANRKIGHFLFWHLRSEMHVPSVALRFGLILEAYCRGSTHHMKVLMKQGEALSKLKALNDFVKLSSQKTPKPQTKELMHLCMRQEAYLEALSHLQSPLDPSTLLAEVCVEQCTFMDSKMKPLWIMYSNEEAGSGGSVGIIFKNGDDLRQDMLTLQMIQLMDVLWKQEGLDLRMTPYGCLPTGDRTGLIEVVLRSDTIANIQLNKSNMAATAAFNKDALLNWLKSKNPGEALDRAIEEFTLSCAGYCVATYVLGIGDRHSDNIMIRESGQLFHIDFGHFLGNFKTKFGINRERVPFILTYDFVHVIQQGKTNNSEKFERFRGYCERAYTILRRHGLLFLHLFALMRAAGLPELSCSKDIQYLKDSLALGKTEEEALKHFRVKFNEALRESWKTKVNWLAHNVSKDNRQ
recombinant PI3 kinase δ, sequence (P27986 whole entry partner): as the sequence (P27986 whole entry partner, the tested form may be a part) above

With `COCCN(CCOC)C(=O)CCCC#Cc1cccc2nc(Cn3nc(-c4ccc(O)cc4)c4c(N)ncnc43)n(Cc3ccccc3Cl)c(=O)c12` [Example 82, 6-(2-((4-Amino-3-(4-hydroxyphenyl)-1H-pyrazolo[3,4-d]pyrimidin-1-yl)methyl)-3-(2-chlorobenzyl)-4-oxo-3,4-dihydroquinazolin-5-yl)-N,N-bis(2-methoxyethyl)hex-5-ynamide], the 50% inhibitory concentration (IC50) in data set [1] is 50 to 1000 nM; in data set [2], < 50 nM; in data set [3], < 50 nM; in data set [4], < 10 nM. The “Cell Viability MTT Assay in D-U937 cells at 4 hr” value in data set [5] is given as “− (− <30%)”. Besides, the “Cell Viability MTT Assay in D-U937 cells at 24 hr” value in data set [5] is given as “− (− <30%)”.
For the compound `Nc1ncnc2c1c(-c1cccc(O)c1)nn2Cc1nc2cccc(C#CCCCC(=O)N3CCC(N4CCOCC4)CC3)c2c(=O)n1Cc1ccccc1Cl` [Example 70, 2-((4-Amino-3-(3-hydroxyphenyl)-1H-pyrazolo[3,4-d]pyrimidin-1-yl)methyl)-3-(2-chlorobenzyl)-5-(6-(4-morpholinopiperidin-1-yl)-6-oxohex-1-yn-1-yl)quinazolin-4(3H)-one], the 50% inhibitory concentration (IC50) in data set [1] is 50 to 1000 nM; in data set [2] it was < 50 nM; in data set [3] it was < 50 nM; in data set [4], < 10 nM. The “Cell Viability MTT Assay in D-U937 cells at 4 hr” value in data set [5] is “− (− <30%)”. Besides, the “Cell Viability MTT Assay in D-U937 cells at 24 hr” value in data set [5] is reported as “− (− <30%)”.
For the compound `Nc1ncnc2c1c(-c1ccc(O)cc1)nn2Cc1nc2cccc(C#CCOCc3ccccc3)c2c(=O)n1Cc1ccccc1Cl` [Example 40, 2-((4-Amino-3-(4-hydroxyphenyl)-1H-pyrazolo[3,4-d]pyrimidin-1-yl)methyl)-5-(3-(benzyloxy)prop-1-ynyl)-3-(2-chlorobenzyl)quinazolin-4(3H)-one], the half-inhibitory concentration (IC50) in data set [1] was 50 to 1000 nM; in data set [2], 50 to 1000 nM; in data set [3], < 50 nM; in data set [4], < 10 nM. Also, the “Cell Viability MTT Assay in D-U937 cells at 4 hr” value in data set [5] is recorded as “− (− <30%)”. Besides, in data set [5], the “Cell Viability MTT Assay in D-U937 cells at 24 hr” value was “− (− <30%)”.
Consider `C#Cc1cccc2nc(Cn3nc(-c4ccc(O)cc4)c4c(N)ncnc43)n(Cc3cc(OC)ccc3F)c(=O)c12` [Example 42, 2-((4-Amino-3-(4-hydroxyphenyl)-1H-pyrazolo[3,4-d]pyrimidin-1-yl)methyl)-5-ethynyl-3-(2-fluoro-5-methoxybenzyl)quinazolin-4(3H)-one], for which the IC50 in data set [1] was 50 to 1000 nM; in data set [2] it was 50 to 1000 nM; in data set [3] it was < 50 nM; in data set [4] it was < 10 nM. Moreover, in data set [5], the “Cell Viability MTT Assay in D-U937 cells at 4 hr” value is “− (− <30%)”. The “Cell Viability MTT Assay in D-U937 cells at 24 hr” value in data set [5] was “− (− <30%)”.
Regarding `CN1CCCN(C(=O)CCCC#Cc2cccc3nc(Cn4nc(-c5ccc(O)cc5)c5c(N)ncnc54)n(Cc4ccccc4Cl)c(=O)c23)CC1` [Example 93, 2-((4-Amino-3-(4-hydroxyphenyl)-1H-pyrazolo[3,4-d]pyrimidin-1-yl)methyl)-3-(2-chlorobenzyl)-5-(6-(4-methyl-1,4-diazepan-1-yl)-6-oxohex-1-ynyl)quinazolin-4(3H)-one], the IC50 in data set [1] is 50 to 1000 nM; in data set [2] it was < 50 nM; in data set [3] it was < 50 nM; in data set [4] it was < 10 nM. Also, the “Cell Viability MTT Assay in D-U937 cells at 4 hr” value in data set [5] is listed as “− (− <30%)”. Also, the “Cell Viability MTT Assay in D-U937 cells at 24 hr” value in data set [5] is given as “− (− <30%)”.
Regarding `COc1cc(-c2nn(Cc3nc4cccc(C#CCCCC(=O)N5CCOCC5)c4c(=O)n3Cc3ccccc3Cl)c3ncnc(N)c23)ccc1O` [Example 95, 2-((4-Amino-3-(4-hydroxy-3-methoxyphenyl)-1H-pyrazolo[3,4-d]pyrimidin-1-yl)methyl)-3-(2-chlorobenzyl)-5-(6-morpholino-6-oxohex-1-ynyl)quinazolin-4(3H)-one], the IC50 in data set [1] is 50 to 1000 nM; in data set [2] it was < 50 nM; in data set [3] it was < 50 nM; in data set [4], < 10 nM. For the same compound, the “Cell Viability MTT Assay in D-U937 cells at 4 hr” value in data set [5] is given as “− (− <30%)”. Further, the “Cell Viability MTT Assay in D-U937 cells at 24 hr” value in data set [5] is “− (− <30%)”.
Take `COCC#Cc1cccc2nc(Cn3nc(-c4ccc(O)cc4)c4c(N)ncnc43)n(Cc3cccc(OC)c3)c(=O)c12` [Example 27, 2-((4-Amino-3-(4-hydroxyphenyl)-1H-pyrazolo[3,4-d]pyrimidin-1-yl)methyl)-3-(3-methoxybenzyl)-5-(3-methoxyprop-1-ynyl)quinazolin-4(3H)-one]: the IC50 in data set [1] is 50 to 1000 nM; in data set [2] it was 50 to 1000 nM; in data set [3], < 50 nM; in data set [4] it was < 10 nM. Further, the “Cell Viability MTT Assay in D-U937 cells at 4 hr” value in data set [5] is “− (− <30%)”. For the same compound, the “Cell Viability MTT Assay in D-U937 cells at 24 hr” value in data set [5] is reported as “− (− <30%)”.
On to `CN1CCN(C(=O)CCCC#Cc2cccc3nc(Cn4nc(-c5cccc(O)c5)c5c(N)ncnc54)n(Cc4ccccc4Cl)c(=O)c23)CC1` [Example 69, 2-((4-Amino-3-(3-hydroxyphenyl)-1H-pyrazolo[3,4-d]pyrimidin-1-yl)methyl)-3-(2-chlorobenzyl)-5-(6-(4-methylpiperazin-1-yl)-6-oxohex-1-yn-1-yl)quinazolin-4(3H)-one], for which the IC50 is 50 to 1000 nM in data set [1], < 50 nM in data set [2], < 50 nM in data set [3] and < 10 nM in data set [4]. For the same compound, the “Cell Viability MTT Assay in D-U937 cells at 4 hr” value in data set [5] is “+ (+ >30%)”. In addition, in data set [5], the “Cell Viability MTT Assay in D-U937 cells at 24 hr” value is “− (− <30%)”.
Turning to `Nc1ncnc2c1c(-c1ccc(O)cc1)nn2Cc1nc2cccc(C#CCCCC(=O)NC3CCOCC3)c2c(=O)n1Cc1ccccc1Cl` [Example 75, 6-(2-((4-Amino-3-(4-hydroxyphenyl)-1H-pyrazolo[3,4-d]pyrimidin-1-yl)methyl)-3-(2-chlorobenzyl)-4-oxo-3,4-dihydroquinazolin-5-yl)-N-(tetrahydro-2H-pyran-4-yl) hex-5-ynamide], the 50% inhibitory concentration (IC50) in data set [1] was 50 to 1000 nM; in data set [2], < 50 nM; in data set [3] it was < 50 nM; in data set [4], < 10 nM. In addition, in data set [5], the “Cell Viability MTT Assay in D-U937 cells at 4 hr” value is given as “− (− <30%)”. In addition, the “Cell Viability MTT Assay in D-U937 cells at 24 hr” value in data set [5] is “− (− <30%)”.
As to `Nc1ncnc2c1c(-c1cccc(O)c1)nn2Cc1nc2cccc(C#CCCCCC(=O)N3CCOCC3)c2c(=O)n1Cc1ccccc1Cl` [Example 55, 2-((4-Amino-3-(3-hydroxyphenyl)-1H-pyrazolo[3,4-d]pyrimidin-1-yl)methyl)-3-(2-chlorobenzyl)-5-(7-morpholino-7-oxohept-1-yn-1-yl)quinazolin-4(3H)-one], the IC50 was 50 to 1000 nM in data set [1], < 50 nM in data set [2], < 50 nM in data set [3] and < 10 nM in data set [4]. The “Cell Viability MTT Assay in D-U937 cells at 4 hr” value in data set [5] is given as “− (− <30%)”. For the same compound, the “Cell Viability MTT Assay in D-U937 cells at 24 hr” value in data set [5] was “− (− <30%)”.
For `C#Cc1cccc2nc(Cn3nc(-c4ccc(O)cc4)c4c(N)ncnc43)n(Cc3ccccc3C(F)(F)F)c(=O)c12` [Example 45, 2-((4-Amino-3-(4-hydroxyphenyl)-1H-pyrazolo[3,4-d]pyrimidin-1-yl)methyl)-5-ethynyl-3-(2-trifluoromethylbenzyl)quinazolin-4(3H)-one], the IC50 in data set [1] is 50 to 1000 nM; in data set [2], 50 to 1000 nM; in data set [3], < 50 nM; in data set [4], < 10 nM. Further, the “Cell Viability MTT Assay in D-U937 cells at 4 hr” value in data set [5] was “− (− <30%)”. In addition, the “Cell Viability MTT Assay in D-U937 cells at 24 hr” value in data set [5] is given as “− (− <30%)”.
For `C#Cc1cccc2nc(Cn3nc(-c4ccc(O)cc4)c4c(N)ncnc43)n(Cc3ccc(OC)cc3)c(=O)c12` [Example 46, 2-((4-Amino-3-(4-hydroxyphenyl)-1H-pyrazolo[3,4-d]pyrimidin-1-yl)methyl)-5-ethynyl-3-(4-methoxybenzyl)quinazolin-4(3H)-one], the IC50 in data set [1] is 50 to 1000 nM; in data set [2] it was 50 to 1000 nM; in data set [3] it was < 50 nM; in data set [4], < 10 nM. In addition, the “Cell Viability MTT Assay in D-U937 cells at 4 hr” value in data set [5] is “− (− <30%)”. Besides, the “Cell Viability MTT Assay in D-U937 cells at 24 hr” value in data set [5] is listed as “− (− <30%)”.
With `C#Cc1cccc2nc(Cn3nc(-c4ccc(O)c(F)c4)c4c(N)ncnc43)n(Cc3ccccc3Cl)c(=O)c12` [Example 36, 2-((4-Amino-3-(3-fluoro-4-hydroxyphenyl)-1H-pyrazolo[3,4-d]pyrimidin-1-yl)methyl)-3-(2-chlorobenzyl)-5-ethynylquinazolin-4(3H)-one], the IC50 is 50 to 1000 nM in data set [1], > 1000 nM in data set [2], < 50 nM in data set [3] and < 10 nM in data set [4]. Also, the “Cell Viability MTT Assay in D-U937 cells at 4 hr” value in data set [5] is on record as “− (− <30%)”. Also, in data set [5], the “Cell Viability MTT Assay in D-U937 cells at 24 hr” value is on record as “− (− <30%)”.

Source of the values: patent publication US9321773B2, “Compounds” (Respivert Ltd, priority 2009, dated 2016).
